Data set [1] relates to ATP7B R778L. Nature of the data set: ATP7B R778L translocation from ER to Golgi in HeLa cells (fluorescence microscopy). It is filed as cell-based, human. As to conditions: JNKi II 5 μM, 48 h, fraction of protein in Golgi by fluorescence microscopy, DMSO control 12.
Excerpt: Inventors next examined the effects of the MLK3 pathway inhibition on the proteostasis of other conformational disease mutants. Inventors transfected CFBE (and HeLa) cells with different conformational mutants (i.e., Sodium-chloride symporter [NCC, [MUT] mutant]; P-glycoprotein, [P-gp, [MUT] and DY490 mutants]; human Ether-a-go-go-Related Gene [hERG, [MUT] mutant]; Wilson's disease associated protein [ATP7B, [MUT] and [MUT] mutants]) and then treated cells with JNKi II and monitored these proteins by assessing changes in their glycosylation patterns (NCC, P-gp, hERG mutants) or in their intracellular movement from the ER to the Golgi complex (ATP7B mutants). […] CFBE or HeLa cells (in case of ATP7B) were transfected with constructs encoding the indicated mutant proteins and treated with JNKi II for 48 h.
The subject of data set [2] is ATP7B H1069Q. Put plainly: Morphological assay of ATP7B H1069Q exit from ER to Golgi in HeLa cells (fluorescence microscopy). The class given is cell-based, human. As to conditions: ATP7B H1069Q; JNKi II 5 μM, 48 h; HeLa cells; fraction of protein in Golgi by fluorescence microscopy; DMSO control 32. Here is the method: Cells were transfected with ATP7B-WT-GFP or ATP7B-H1069Q-GFP, incubated overnight with 200 μM BCS and/or drugs. Fixed cells were further labeled for TGN46 to mark and visualize the Golgi area under a confocal microscope. Under low copper conditions ATP7B-WT traffics to the Golgi from the ER, while ATP7B-H1069Q is retained within the ER. If the drug treatments induce the rescue of trafficking from the ER to the Golgi, the ATP7B-H1069Q-GFP fluorescence in the Golgi area increases. This is measured by quantifying (in 10 different microscopy fields in 100 cells) the increased in fluorescence of ATP7BWT-GFP or ATP7BH1069Q-GFP in the Golgi area (marked by TGN46) and normalizing this value to total cell fluorescence
CFBE or HeLa cells (in case of ATP7B) were transfected with constructs encoding the indicated mutant proteins and treated with JNKi II for 48 h.

For data set [3], the system named is P-glycoprotein mutant (P-gp DY490). Nature of the data set: Proteostasis of P-glycoprotein mutant in transfected CFBE cells (western blotting). It is filed as cell-based. The protocol:
(§1) C. CFBE cells were treated with 5 μM oxozeaenol for 48 h, or with MLK3 siRNA, or with both, and the correction of the F508del-CFTR folding/trafficking defect was monitored by changes in the levels of band C. There was no additive effect observed with the combination of MLK3 downregulation and oxozeaenol treatment. The quantitated band C levels are expressed as mean±SD (n>3). D. CFBE cells were treated with 5 μM oxozeaenol for 24 h, and the activity of the JNK pathway was measured by western blotting for phospho c-jun levels and F508del-CFTR. […] E. CFBE cells were treated with flunarizine (at concentrations 6.25-50 μM) targeting the CAMKK2 pathway for 48 h and the effect on F508del-CFTR proteostasis measured by western blotting. Treatment with flunarizine increased the levels of band C of F508del-CFTR. […] F. CFBE cells transiently transfected with the P-glycoprotein mutant (P-gp DY490), the NCC mutant (R948X), or the hERG mutant (G601S) were treated with JNKi II for 24 h, and the effect of the drug on their proteostasis monitored by western blotting.
(§2) The level of correction obtained with these inhibitors is higher than the effects of the corrector compounds from which the pathways were deduced (FIG. 3A), and similar to, or higher than, the effects of VX-809. […]
(In general: In western blotting, separated proteins are transferred to a membrane and probed.)

The test system of data set [4] is ATP7BH1069Q. Put plainly: Immunofluorescence assay for correction of ATP7B: cells with ATP7BH1069Q signal in the ER, HeLa cells. It is filed as cell-based, human. As to conditions: 24 h, SB202190 5 μM, VX-745 1 μM, SP600125 2 μM, Oxozeaenol 5 μM, 100 μM CuSO4 2 h. The protocol:
(A) HeLa cells were infected with Ad-ATP7BWT-GFP (Chesi et al., 2016) or Ad-ATP7BH1069Q-GFP, incubated overnight with 200 μM BCS, and incubated for an additional 2 h with 100 μM CuSO4. In response to Cu, ATP7BWT traffics from the Golgi to PM and vesicle, while ATP7BH1069Q are retained within the ER under high Cu conditions. Addition of p38 inhibitor SB202190 (5 μM), VX-745(1 μM), JNK inhibitor SP600125 (2 μM) and Oxozeaenol (5 μM) (as indicated in corresponding panels) to the cells 24 h corrects ATP7BH1069Q from the ER to PM and vesicles (arrows) (B) Cells were treated as in panel A. The percentage of the cells (average±SD, n=50 fields) with an ATP7B signal in the ER, were calculated.
Cells were fixed with 4% paraformaldehyde in 0.2 M HEPES for 10 mins, permeabilized, labeled with primary and secondary antibodies, and examined with a ZEISS LSM 700 confocal microscope equipped with a 63×1.4 numerical aperture oil objective. The cells were scored based on the disappearance of ATP7B from the ER.

Data set [5] has as its system hERG mutant (G601S). Put plainly: Proteostasis of hERG mutant in transfected CFBE cells (western blotting). The class given is cell-based, human. The protocol:
as §1, §2

For data set [6], the system named is F508del-CFTR. Nature of the data set: F508del-CFTR proteostasis by western blotting (ER band B / Golgi-processed band C) in CFBE cells. As to conditions: 48 h, concentration series. The class given is cell-based, human. Here is the method: Cells were washed three times in ice-cold Dulbecco's phosphate-buffered saline, and lysed in RIPA buffer (150 mM NaCl, 1% Triton X-100, 0.5% deoxycholic acid, 0.1% SDS, 20 mM Tris-HCl, pH 7.4), supplemented with protease inhibitor cocktail and phosphatase inhibitors. The lysates were clarified by centrifugation at 15000×g for 15 min, and the supernatants were resolved by SDS-PAGE. BCA Protein Assay kit (Pierce) was used to quantitate protein levels before loading. The western blots were decorated with appropriate antibodies and developed using ECL. The blots were then exposed to x-ray films and exposure time was varied to obtain optimal signal. The x-ray films were then scanned and the bands were quantitated using ImageJ gel-analysis tool. The protein concentration and the exposures used for quantitation of the blots were optimized to be in a linear range of detection.
Inventors then turned to experimental validation of the role of the CORE genes in the regulation of F508del-CFTR proteostasis. Experiments were carried out using a characterised biochemical assay that detects both the amount of core-glycosylated CFTR trapped in the ER (band B with Western blotting) and the amount of CFTR fully glycosylated in the Golgi (most of which presumably resides at the PM; band C with Western blotting).

The test system of data set [7] is NCC mutant (R948X). Put plainly: Proteostasis of NCC mutant in transfected CFBE cells (western blotting). It is filed as cell-based. Here is the method: as §1, §2

With `O=C1c2ccccc2-c2n[nH]c3cccc1c23` [JNKi II], the “Correction (% of wild type)” value was 40 % of wild type in data set [1]; 80 % of wild type in data set [2]; 44 % of wild type in data set [3] (P-Glycoprotein DY490, JNKi II 5 μM, 48 h, protein processed by the Golgi, DMSO control 24); 24 % of wild type in data set [5] (table row 'hERG R948X', JNKi II 5 μM, 48 h, protein processed by the Golgi, DMSO control 44); 9 % of wild type in data set [7] (table row 'NCC G601S', JNKi II 5 μM, 48 h, protein processed by the Golgi, DMSO control 10). Further, in data set [3] (JNKi II 24 h), the “trafficking of P-gp DY490 out of the ER (Golgi-associated band C)” value is listed as “enhanced”. Moreover, the “percentage of the cells exhibiting ATP7BH1069Q in the ER” value in data set [4] is on record as “reduced”. Further, the “proteostasis of hERG mutant (G601S), levels of bands B and C” value in data set [5] (JNKi II 24 h) is given as “enhanced degradation”. For the same compound, the “levels of band B and band C of F508del-CFTR” value in data set [6] is reported as “robust increases”. In addition, in data set [7] (JNKi II 24 h), the “proteostasis of NCC mutant (R948X), levels of bands B and C” value is recorded as “enhanced degradation”.
